Test results as given in paper PMC9871744 (Cellular and Molecular Gastroenterology and Hepatology, 2022).
Several values for one entry are separate records, joined by “and”; a condition that tells them apart may be missing. Identical values can stand only once.

Test system: HepG2 cells
Experiment: Micronucleus analysis
[1] = extended treatment in the absence of S9 mix, 0.0065 mmol/L
[2] = extended treatment in the absence of S9 mix, 0.010 mmol/L
[3] = extended treatment in the absence of S9 mix, 0.020 mmol/L
[4] = extended treatment in the absence of S9 mix, 2.5 mmol/L (Table 14)
[5] = extended treatment in the absence of S9 mix, 5 mmol/L (Table 14)
[6] = extended treatment in the absence of S9 mix, 10 mmol/L (Table 14)
[7] = short treatment in the absence of S9 mix, 0.025 mmol/L
[8] = short treatment in the absence of S9 mix, 0.05 mmol/L
[9] = short treatment in the absence of S9 mix, 0.10 mmol/L
[10] = short treatment in the presence of S9 mix, 0.025 mmol/L
[11] = short treatment in the presence of S9 mix, 0.05 mmol/L
[12] = short treatment in the presence of S9 mix, 0.10 mmol/L

CCCCC/C=C\C/C=C\CCCCCCCCP(=O)(OCC)OCC [NKS-3, diethyl (9Z,12Z)-octadeca-9,12-dien-1-ylphosphonate]
MNBN cells frequency (%) [1]: 0.8% and 0.6% | Mean frequency (%) of MNBN cells [1]: 0.70% | MNBN cells frequency (%) [2]: 0.9% and 0.8% | Mean frequency (%) of MNBN cells [2]: 0.85% | MNBN cells frequency (%) [3]: 0.9% and 0.6% | Mean frequency (%) of MNBN cells [3]: 0.75% | MNBN cells frequency (%) [4]: 0.9% and 0.7% | Mean frequency (%) of MNBN cells [4]: 0.80% | MNBN cells frequency (%) [5]: 0.9% and 0.8% | Mean frequency (%) of MNBN cells [5]: 0.85% | MNBN cells frequency (%) [6]: 1.0% and 0.9% | Mean frequency (%) of MNBN cells [6]: 0.95% | MNBN cells frequency (%) [7]: 0.6% and 0.5% | Mean frequency (%) of MNBN cells [7]: 0.55% | MNBN cells frequency (%) [8]: 0.7% | Mean frequency (%) of MNBN cells [8]: 0.70% | MNBN cells frequency (%) [9]: 0.7% and 0.6% | Mean frequency (%) of MNBN cells [9]: 0.65% | MNBN cells frequency (%) [10]: 0.7% | Mean frequency (%) of MNBN cells [10]: 0.70% | MNBN cells frequency (%) [11]: 0.6% and 0.8% | Mean frequency (%) of MNBN cells [11]: 0.70% | MNBN cells frequency (%) [12]: 0.6% and 0.4% | Mean frequency (%) of MNBN cells [12]: 0.50%
